pIC50: −log10 of the molar value.

What all share (format): biochemical
Assay [1] addresses p110γ (Homo sapiens, UniProt P48736). The assay is described as follows: Transcreener KINASE Assay, kinase inhibition of p110γ. Conditions: for PI3Kγ IH % @ 1 uM: 1 uM test compound; for pIC50: read-out: PI3Kγ IC50. How it is done: Kinase Inhibition assays of p110α/p85α, p110β/p85α, p110δ/p85α and p110γ PI3K kinases including p110α/p85α, p110δ/p85α and p110γ are purchased from Invitrogen, and p110β/p85α is from Millipore. Primary screening data and IC50 values are measured using Transcreener™ KINASE Assay (Bellbrook, Catalog #3003-10K). […] It is a universal, homogenous, high throughput screening (HTS) technology using a far-red, competitive fluorescence polarization immunoassay based on the detection of ADP to monitor the activity of enzymes that catalyze group transfer reactions. Briefly, the Transcreener KINASE Assay is designed as a simple two-part, endpoint assay. […] The plate is sealed and incubated for 80 min at room temperature. Next, 25 ul ADP detection mix is added per well. The plate is sealed again and incubated for 60 min at room temperature, and then measure fluorescence polarization by Tecan Infinite F500 Reader. Data is analyzed and IC50s are generated using the add-in software for Microsoft Excel, Xlfit™ (version 2.0).

The target in assay [2] is p110β/p85α (Homo sapiens, UniProt P42338). The assay is described as follows: Transcreener KINASE Assay, kinase inhibition of p110β/p85α. The settings on record: for PI3Kβ IH % @ 1 uM: 1 uM test compound; for pIC50: read-out: PI3Kβ IC50. How it is done: (§1) PI3K kinases including p110α/p85α, p110δ/p85α and p110γ are purchased from Invitrogen, and p110β/p85α is from Millipore.
Chain of p110β/p85α (P42338 whole entry): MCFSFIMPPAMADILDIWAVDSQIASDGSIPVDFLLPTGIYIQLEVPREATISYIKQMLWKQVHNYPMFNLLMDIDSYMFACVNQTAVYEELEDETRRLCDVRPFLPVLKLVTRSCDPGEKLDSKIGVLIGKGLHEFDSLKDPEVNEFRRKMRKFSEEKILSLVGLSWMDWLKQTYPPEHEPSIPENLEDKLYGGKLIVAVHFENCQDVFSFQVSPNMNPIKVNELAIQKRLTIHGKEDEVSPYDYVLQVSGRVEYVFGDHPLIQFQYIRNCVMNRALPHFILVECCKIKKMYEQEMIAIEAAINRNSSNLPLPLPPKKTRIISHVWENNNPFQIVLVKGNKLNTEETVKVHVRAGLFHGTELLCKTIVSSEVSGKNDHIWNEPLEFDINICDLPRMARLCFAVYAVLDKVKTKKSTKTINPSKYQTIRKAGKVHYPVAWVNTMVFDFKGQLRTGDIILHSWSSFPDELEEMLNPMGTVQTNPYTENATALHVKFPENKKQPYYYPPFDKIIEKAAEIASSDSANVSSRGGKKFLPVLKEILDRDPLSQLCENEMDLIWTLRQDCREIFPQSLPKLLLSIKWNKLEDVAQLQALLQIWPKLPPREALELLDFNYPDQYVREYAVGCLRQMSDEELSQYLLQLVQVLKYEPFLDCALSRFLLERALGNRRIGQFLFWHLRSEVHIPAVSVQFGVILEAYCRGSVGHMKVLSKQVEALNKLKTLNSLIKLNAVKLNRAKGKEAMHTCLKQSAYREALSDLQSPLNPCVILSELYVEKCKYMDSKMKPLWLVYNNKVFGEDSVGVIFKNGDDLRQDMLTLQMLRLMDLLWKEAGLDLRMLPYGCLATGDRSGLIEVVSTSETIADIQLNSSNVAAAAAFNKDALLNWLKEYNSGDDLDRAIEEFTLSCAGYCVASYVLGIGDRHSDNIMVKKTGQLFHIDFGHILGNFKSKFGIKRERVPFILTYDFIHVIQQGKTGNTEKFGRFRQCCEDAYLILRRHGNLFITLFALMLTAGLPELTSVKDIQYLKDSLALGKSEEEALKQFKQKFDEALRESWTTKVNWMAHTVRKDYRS
Chain of p110β/p85α (P27986 2-724 partner): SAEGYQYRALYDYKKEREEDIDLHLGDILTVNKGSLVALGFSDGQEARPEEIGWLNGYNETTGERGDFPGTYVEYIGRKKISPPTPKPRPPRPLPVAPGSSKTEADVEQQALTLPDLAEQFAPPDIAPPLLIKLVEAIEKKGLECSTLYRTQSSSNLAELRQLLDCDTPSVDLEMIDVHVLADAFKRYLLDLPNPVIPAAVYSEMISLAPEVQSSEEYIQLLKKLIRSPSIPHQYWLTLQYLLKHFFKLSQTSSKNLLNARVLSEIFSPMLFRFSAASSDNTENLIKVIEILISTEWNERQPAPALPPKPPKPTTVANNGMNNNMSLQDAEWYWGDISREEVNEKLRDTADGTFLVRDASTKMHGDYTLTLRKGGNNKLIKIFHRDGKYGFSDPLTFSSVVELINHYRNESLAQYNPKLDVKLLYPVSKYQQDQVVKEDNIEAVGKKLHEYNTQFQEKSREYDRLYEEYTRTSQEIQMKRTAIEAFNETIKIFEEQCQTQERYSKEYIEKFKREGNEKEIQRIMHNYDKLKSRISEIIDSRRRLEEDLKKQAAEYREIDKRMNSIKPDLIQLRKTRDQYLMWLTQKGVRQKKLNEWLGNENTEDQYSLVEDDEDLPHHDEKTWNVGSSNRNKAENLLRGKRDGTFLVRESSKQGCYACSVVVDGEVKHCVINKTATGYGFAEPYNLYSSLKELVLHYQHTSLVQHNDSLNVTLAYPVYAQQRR
(§2) Primary screening data and IC50 values are measured using Transcreener™ KINASE Assay (Bellbrook, Catalog #3003-10K). […] It is a universal, homogenous, high throughput screening (HTS) technology using a far-red, competitive fluorescence polarization immunoassay based on the detection of ADP to monitor the activity of enzymes that catalyze group transfer reactions. Briefly, the Transcreener KINASE Assay is designed as a simple two-part, endpoint assay.
(§3) In the first step, the 25 ul kinase reaction is performed by preparing a reaction mixture containing 5 ul test compound (2% DMSO final concentration), 10 ul kinase, buffer (50 mM HEPES, 100 mM NaCl, 1 mM EGTA, 0.03% CHAPS, 3 mM MgCl2, and freshly supplemented 1 mM DTT), and 10 ul 30 uM PIP2/10 uM ATP. The plate is sealed and incubated for 80 min at room temperature. Next, 25 ul ADP detection mix is added per well. The plate is sealed again and incubated for 60 min at room temperature, and then measure fluorescence polarization by Tecan Infinite F500 Reader.
(§4) Data is analyzed and IC50s are generated using the add-in software for Microsoft Excel, Xlfit™ (version 2.0). IH %=(ADP amount under 2% DMSO-ADP amount under test compound)/ADP amount under 2% DMSO.

Assay [3] addresses p110δ/p85α (Homo sapiens, UniProt O00329). The assay is described as follows: Transcreener KINASE Assay, kinase inhibition of p110δ/p85α. Conditions: for PI3Kδ IH % @ 1 uM: 1 uM test compound; for pIC50: read-out: PI3Kδ IC50. How it is done: as §1, §2, §3, §4

Chain of p110δ/p85α (O00329 whole entry): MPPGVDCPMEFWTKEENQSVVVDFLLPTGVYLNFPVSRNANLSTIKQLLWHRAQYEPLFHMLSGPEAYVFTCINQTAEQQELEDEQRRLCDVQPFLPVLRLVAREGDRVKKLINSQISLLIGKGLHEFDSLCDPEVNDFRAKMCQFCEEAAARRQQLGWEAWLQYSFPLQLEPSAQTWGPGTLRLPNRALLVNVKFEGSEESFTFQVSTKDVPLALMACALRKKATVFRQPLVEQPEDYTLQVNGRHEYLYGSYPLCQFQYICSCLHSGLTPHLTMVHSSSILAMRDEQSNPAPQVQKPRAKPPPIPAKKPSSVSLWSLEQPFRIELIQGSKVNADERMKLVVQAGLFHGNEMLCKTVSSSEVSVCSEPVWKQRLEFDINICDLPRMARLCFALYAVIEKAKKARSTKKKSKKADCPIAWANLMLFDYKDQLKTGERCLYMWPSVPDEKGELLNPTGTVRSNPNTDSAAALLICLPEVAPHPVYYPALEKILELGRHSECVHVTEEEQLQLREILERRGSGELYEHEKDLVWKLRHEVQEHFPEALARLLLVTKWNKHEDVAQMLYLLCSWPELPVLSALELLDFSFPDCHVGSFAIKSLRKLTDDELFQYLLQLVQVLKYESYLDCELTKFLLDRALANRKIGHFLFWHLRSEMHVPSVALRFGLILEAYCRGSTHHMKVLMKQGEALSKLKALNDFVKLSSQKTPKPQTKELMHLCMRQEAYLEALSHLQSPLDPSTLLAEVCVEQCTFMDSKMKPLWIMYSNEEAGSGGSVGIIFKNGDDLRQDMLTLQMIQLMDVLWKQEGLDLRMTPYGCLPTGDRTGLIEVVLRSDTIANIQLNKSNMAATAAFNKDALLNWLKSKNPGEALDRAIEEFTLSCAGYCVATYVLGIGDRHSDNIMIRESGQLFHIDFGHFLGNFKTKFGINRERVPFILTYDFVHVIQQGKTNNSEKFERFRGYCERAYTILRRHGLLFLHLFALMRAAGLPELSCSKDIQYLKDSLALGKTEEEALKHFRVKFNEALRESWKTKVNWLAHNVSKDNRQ
Chain of p110δ/p85α (P27986 whole entry partner): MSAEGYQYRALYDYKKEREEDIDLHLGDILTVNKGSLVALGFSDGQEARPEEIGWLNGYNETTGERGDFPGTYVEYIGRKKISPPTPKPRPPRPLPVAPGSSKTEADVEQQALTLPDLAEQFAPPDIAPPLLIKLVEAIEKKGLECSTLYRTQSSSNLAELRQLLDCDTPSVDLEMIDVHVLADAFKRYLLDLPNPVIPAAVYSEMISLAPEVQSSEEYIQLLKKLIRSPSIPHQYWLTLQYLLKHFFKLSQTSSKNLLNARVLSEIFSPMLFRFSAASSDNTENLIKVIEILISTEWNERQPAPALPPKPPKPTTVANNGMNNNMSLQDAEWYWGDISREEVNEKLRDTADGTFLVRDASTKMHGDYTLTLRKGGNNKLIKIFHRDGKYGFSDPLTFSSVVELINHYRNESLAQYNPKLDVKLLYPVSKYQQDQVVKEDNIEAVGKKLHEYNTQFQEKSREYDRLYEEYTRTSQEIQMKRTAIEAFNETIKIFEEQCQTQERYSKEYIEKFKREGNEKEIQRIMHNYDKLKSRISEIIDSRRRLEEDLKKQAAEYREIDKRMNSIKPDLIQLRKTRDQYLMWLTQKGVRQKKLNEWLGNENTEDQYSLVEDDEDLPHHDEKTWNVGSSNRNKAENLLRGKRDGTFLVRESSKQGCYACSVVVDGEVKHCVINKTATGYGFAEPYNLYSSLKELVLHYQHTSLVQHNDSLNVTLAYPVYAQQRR
Chain of p110γ (P48736 whole entry): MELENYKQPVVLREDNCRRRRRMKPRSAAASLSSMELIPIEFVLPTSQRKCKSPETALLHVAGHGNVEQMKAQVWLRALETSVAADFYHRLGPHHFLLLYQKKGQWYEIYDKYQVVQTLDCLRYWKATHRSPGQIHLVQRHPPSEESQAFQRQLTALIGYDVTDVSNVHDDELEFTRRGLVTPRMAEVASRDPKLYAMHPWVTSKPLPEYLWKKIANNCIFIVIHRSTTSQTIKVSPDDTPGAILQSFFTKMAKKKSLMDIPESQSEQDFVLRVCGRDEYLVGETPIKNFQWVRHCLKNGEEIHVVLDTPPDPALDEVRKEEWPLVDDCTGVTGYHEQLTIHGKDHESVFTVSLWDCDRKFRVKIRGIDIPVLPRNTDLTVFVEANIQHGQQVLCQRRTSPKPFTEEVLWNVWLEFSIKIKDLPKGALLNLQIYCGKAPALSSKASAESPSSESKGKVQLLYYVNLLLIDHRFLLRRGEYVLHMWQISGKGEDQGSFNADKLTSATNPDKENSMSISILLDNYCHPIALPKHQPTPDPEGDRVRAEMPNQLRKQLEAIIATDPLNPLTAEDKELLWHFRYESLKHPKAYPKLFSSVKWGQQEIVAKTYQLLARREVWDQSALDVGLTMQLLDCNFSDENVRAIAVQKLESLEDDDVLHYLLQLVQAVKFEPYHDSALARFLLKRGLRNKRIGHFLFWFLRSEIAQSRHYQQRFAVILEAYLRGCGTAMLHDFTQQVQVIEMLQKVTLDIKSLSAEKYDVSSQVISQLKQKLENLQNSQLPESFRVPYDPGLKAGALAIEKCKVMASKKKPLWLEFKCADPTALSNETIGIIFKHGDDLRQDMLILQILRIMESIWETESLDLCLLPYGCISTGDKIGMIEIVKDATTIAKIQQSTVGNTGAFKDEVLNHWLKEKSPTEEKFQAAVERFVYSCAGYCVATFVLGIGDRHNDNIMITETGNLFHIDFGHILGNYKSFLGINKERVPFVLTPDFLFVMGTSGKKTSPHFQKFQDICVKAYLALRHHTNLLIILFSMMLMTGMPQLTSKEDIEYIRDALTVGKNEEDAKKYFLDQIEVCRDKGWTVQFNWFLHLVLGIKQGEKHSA

As to `N#Cc1c[nH]c2ncnc(N3C[C@@H](F)C[C@H]3c3nn4ccc(Cl)c4c(=O)n3-c3ccccc3)c12` [Compound 74], the “PI3Kγ IH % @ 1 uM” value in assay [1] was above 100%. Besides, in assay [2], the “PI3Kβ IH % @ 1 uM” value was above 100% and the pIC50 – broadly, the negative decadic logarithm of the IC50, by convention in mol/L – was 7.60. Further, in assay [3], the “PI3Kδ IH % @ 1 uM” value is above 100% and the pIC50 is 9.00.
Consider `CC(Nc1ncnc2[nH]cnc12)c1cn2ccc(Cl)c2c(=O)n1-c1cccc(F)c1` (centres unmarked) [Compound 75, 3-(1-(9H-purin-6-ylamino)ethyl)-8-chloro-2-(3-fluorophenyl)pyrrolo[1,2-a]pyrazin-1(2H)-one], for which, in assay [1], the “PI3Kγ IH % @ 1 uM” value amounted to 97.3% and the pIC50 was 8.10. In assay [2], the “PI3Kβ IH % @ 1 uM” value is reported as 69.3% and the pIC50 is 7.02. For the same compound, in assay [3], the “PI3Kδ IH % @ 1 uM” value came to 99.1% and the pIC50 was 8.52.
On to `CC(Nc1ncnc2[nH]cc(C#N)c12)c1cn2ccc(Cl)c2c(=O)n1-c1cccc(F)c1` (centres unmarked) [Compound 76], for which, in assay [1], the “PI3Kγ IH % @ 1 uM” value was 93.9%. Besides, in assay [2], the “PI3Kβ IH % @ 1 uM” value is reported as 82.0% and the pIC50 was 6.98. Moreover, the “PI3Kδ IH % @ 1 uM” value in assay [3] turned out to be 98.8%.
Turning to `CC(Nc1ncnc2[nH]cnc12)c1cn2ccc(Cl)c2c(=O)n1-c1ccc(F)cc1` (centres unmarked) [Compound 78], the “PI3Kγ IH % @ 1 uM” value in assay [1] was 91.2%. Also, in assay [2], the “PI3Kβ IH % @ 1 uM” value came to 92.4%. In addition, in assay [3], the “PI3Kδ IH % @ 1 uM” value is on record as 98.2%.
For `CC(Nc1ncnc(N)c1C#N)c1cn2ccc(Cl)c2c(=O)n1-c1ccc(F)cc1` (centres unmarked) [Compound 79], in that order: 91.6%, 96.3% and 99.0%.
In the case of `CC(Nc1ncnc2[nH]cnc12)c1cn2ccc(Cl)c2c(=O)n1-c1cc(F)cc(F)c1` (centres unmarked) [Compound 80], the “PI3Kγ IH % @ 1 uM” value in assay [1] is recorded as 83.5%. In addition, in assay [2], the “PI3Kβ IH % @ 1 uM” value is given as 58.9%. Besides, in assay [3], the “PI3Kδ IH % @ 1 uM” value is reported as above 100%.
In the case of `CC(Nc1ncnc(N)c1C#N)c1cn2ccc(Cl)c2c(=O)n1-c1cc(F)cc(F)c1` (centres unmarked) [Compound 81], the “PI3Kγ IH % @ 1 uM” value in assay [1] was 87.9%. Also, in assay [2], the “PI3Kβ IH % @ 1 uM” value is given as 79.0% and the pIC50 is 6.66. In addition, the “PI3Kδ IH % @ 1 uM” value in assay [3] is recorded as above 100%.
Regarding `CC(Nc1ncnc2[nH]cc(C#N)c12)c1cn2cccc2c(=O)n1-c1ccccc1` (centres unmarked) [Compound 82], in assay [1], the “PI3Kγ IH % @ 1 uM” value was found to be 78.6% and the pIC50 was 6.71. Also, in assay [2], the “PI3Kβ IH % @ 1 uM” value worked out at 56.4%. The “PI3Kδ IH % @ 1 uM” value in assay [3] is 98.7%.
On to `CC(Nc1ncnc2[nH]cnc12)c1cn2cccc2c(=O)n1-c1ccccc1` (centres unmarked) [Compound 83], for which, in assay [1], the “PI3Kγ IH % @ 1 uM” value stood at 78.6% and the pIC50 is 6.51. The “PI3Kβ IH % @ 1 uM” value in assay [2] came out at 42.7%. The “PI3Kδ IH % @ 1 uM” value in assay [3] came out at 97.3%.
Consider `CC(Nc1ncnc2[nH]cc(C#N)c12)c1cn2ccc(Cl)c2c(=O)n1-c1ccccc1` (centres unmarked) [Compound 88], for which, in assay [1], the “PI3Kγ IH % @ 1 uM” value came out at 98.0% and the pIC50 was 7.85. For the same compound, in assay [2], the “PI3Kβ IH % @ 1 uM” value is recorded as 94.7% and the pIC50 is 7.24. In addition, in assay [3], the “PI3Kδ IH % @ 1 uM” value was determined as 93.2%.
Take `CC(Nc1ncnc(N)c1C#N)c1cn2ccc(Cl)c2c(=O)n1-c1ccccc1` (centres unmarked) [Compound 89]: in assay [1], the “PI3Kγ IH % @ 1 uM” value is 94.8%. In addition, in assay [2], the “PI3Kβ IH % @ 1 uM” value stood at 96.1% and the pIC50 is 7.77. In addition, in assay [3], the “PI3Kδ IH % @ 1 uM” value is listed as above 100%.
For `Cc1ccn2cc(C(C)Nc3ncnc(N)c3C#N)n(-c3ccccc3)c(=O)c12` (centres unmarked) [Compound 90, 4-amino-6-(1-(8-methyl-1-oxo-2-phenyl-1,2-dihydropyrrolo[1,2-a]pyrazin-3-yl)ethylamino)pyrimidine-5-carbonitrile], in assay [1], the “PI3Kγ IH % @ 1 uM” value was determined as 95.7% and the pIC50 was 7.47. Further, in assay [2], the “PI3Kβ IH % @ 1 uM” value is 93.1% and the pIC50 was 7.62. For the same compound, the “PI3Kδ IH % @ 1 uM” value in assay [3] is given as above 100%.

The record behind these values is US20150307520A1, “NOVEL HETEROARYL AND HETEROCYCLE COMPOUNDS, COMPOSITIONS AND METHODS THEREOF” (HUTCHISON MEDIPHARMA LIMITED, priority 2012, published 2015).
